Drawing on patent US20250304571A1, “BIOLOGICALLY ACTIVE COMPOUNDS AND METHODS THEREOF” (Suzhou Keen Therapeutics Co., Ltd., priority 2022, published 2025), this text covers IC50 for 51 compounds.

pIC50: −log10 of the molar value. Read-outs that look alike come from different tables or passages of the source.

This assay deals with 786-O (renal cell carcinoma) cells. Kind of assay: Cell viability (CellTiter Glo) assay, inhibition of 786-O cell proliferation. In kind it is cell-based. The following applies: Homo sapiens, read-out: IC50, inhibition of 786-O cell proliferation.
The mark [1] stands for this setting: 786-0, 786-O cells, 72 hours, CellTiter Glo.

On to `N=C(OCc1nc(N)c2c(n1)N(c1cnc(C3CC3)nc1)C(=O)C21CCCC1)N1CCC[C@@H]1C(F)(F)F` [Compound E63], for which the pIC50 under setting [1] is above 7.00. Take `C[C@@H]1CN(c2ccc(N3C(=O)C(C)(C)c4c(N)nc(COC(=N)N(C)CC(F)(F)F)nc43)cn2)C[C@H](C)O1` [Compound E189, (4-amino-7-(6-((2R,6S)-2,6-dimethylmorpholino)pyridin-3-yl)-5,5-dimethyl-6-oxo-6,7-dihydro-5H-pyrrolo[2,3-d]pyrimidin-2-yl)methyl methyl(2,2,2-trifluoroethyl)carbamimidate]: the pIC50 under setting [1] is 6.30 to 7.00.

Consider `C[C@@H]1CN(c2ccc(N3CC4(CCC4)c4c(NCC(F)(F)F)nc(COC(=N)N5CCC[C@@H]5C(F)(F)F)nc43)cn2)C[C@H](C)O1` [Compound E21], for which the pIC50 under setting [1] is above 7.00.

For `N=C(OCc1nc(NC2CC2)c2c(n1)N(c1ccc(N3CCOCC3)c(F)c1)C(=O)C21CCCC1)N1CCC[C@@H]1C(F)(F)F` [Compound E198], the pIC50 under setting [1] is above 7.00. Still for that read-out and setting: for `CC1(C)CN(c2ccc(N3CCOCC3)cc2)c2nc(COC(=N)N3CCCC3C(F)(F)F)nc(N)c21` (stereo not drawn) [Compound E18] the value was above 7.00; for `CC1(NC(=N)OCc2nc(N)nc(Nc3ccc(Oc4ccccc4)cc3)n2)CC1` [Compound F28], 6.30 to 7.00. Still for that read-out and setting: for `CNc1nc(COC(=N)N2CCOCC2C(F)(F)F)nc2c1C(C)(C)C(=O)N2c1cnc(N2C[C@@H](C)O[C@@H](C)C2)nc1` (stereo partly drawn) [Compound E218] the value was 5.30 to 6.30; for `CC(C)N(CC(F)(F)F)C(=N)OCc1ncc(C2CCOCC2)c(Nc2ccc(N3CCOCC3)nc2)n1` [Compound E124], below 5.30; for `N=C(OCc1ncc(C2CCCO2)c(Nc2ccc(Oc3ccccc3)cc2)n1)N1CCCCC1C(F)(F)F` (stereo not drawn) [Compound E119], above 7.00. On the same count and under the same terms, for `CC1(C)CC(c2ncc(N3C(=O)C4(CCCC4)c4c(N)nc(COC(=N)N5CCOCC5C(F)(F)F)nc43)cn2)CC(C)(C)O1` (stereo not drawn) [Compound E101] the value was 5.30 to 6.30; for `CCCNc1nc(COC(=N)N2CCC[C@@H]2C(F)(F)F)nc2c1C(C)(C)C(=O)N2c1ccc(N2CCOCC2)cc1` [Compound E201], above 7.00; for `CNc1nc(COC(=N)N(CC(F)(F)F)C(C)C)nc2c1C1(CC1)C(=O)N2c1ccc(N2CCCCC2)nc1` [Compound E166], above 7.00. For `CN(C)C(=N)OCc1ncc2c(n1)c(-c1ccc(Oc3ccccc3)cc1)nn2C` [Compound D11], the pIC50 (786-0, 72 h) is 5.30 to 6.30. With `CC(C)N(CC(F)(F)F)C(=N)OCc1ncc2c(n1)N(c1ccc(OC3CCOCC3)cc1)CC21CC1` [Compound E145], the pIC50 under setting [1] was 6.30 to 7.00. On the same count and under the same terms, for `CC1(C)CN(c2ccc(Oc3ccccc3)cc2)c2nc(COC(=N)N3CCCCC3C(F)(F)F)ncc21` (stereo not drawn) [Compound E10] the value was above 7.00.

In the case of `CN(C)C(=N)OCc1nc(NC2CCCCC2)c2cc[nH]c2n1` [Compound D9], the pIC50 (786-0, 72 h) was 5.30 to 6.30. For the compound `COc1cc(N2C[C@@H](C)O[C@@H](C)C2)ncc1N1C(=O)C(C)(C)c2c(N)nc(COC(=N)N3CCC[C@@H]3C(F)(F)F)nc21` [Compound E47], the pIC50 under setting [1] is 6.30 to 7.00. Still for that read-out and setting: for `CNc1nc(COC(=N)N2CCCCC2C(F)(F)F)nc2c1C(C)(C)C(=O)N2c1ccc(OC2CCCCC2)cc1` (stereo not drawn) [Compound E174] the value was above 7.00; for `C[C@@H]1CN(c2ccc(N3C(=O)C4(CCCC4)c4c(NCC(F)(F)F)nc(COC(=N)N5CCC[C@@H]5C(F)(F)F)nc43)cn2)C[C@H](C)O1` [Compound E44], above 7.00.

For the compound `C[C@@H]1CN(c2ccc(N3C(=O)C(C)(C)c4c(N)nc(COC(=N)N(CC(F)(F)F)C5CC5)nc43)cn2)C[C@H](C)O1` [Compound E193], the pIC50 under setting [1] is 6.30 to 7.00. On the same count and under the same terms, for `CNc1nc(COC(=N)N2CCC[C@@H]2C(F)(F)F)nc2c1C(C)(C)C(=O)N2c1ccc2c(c1)CCCO2` [Compound E185] the value was above 7.00; for `CNc1nc(COC(=N)N2CCCC2C(F)(F)F)nc2c1C(C)(C)C(=O)N2c1ccc(N2C[C@@H](C)O[C@@H](C)C2)nc1` (stereo partly drawn) [Compound E113], above 7.00; for `CCCCC1Cc2c([nH]c3ccccc23)C(c2ccc(F)cc2)N1C(=O)COC(=N)N1CCN(CC)C(=O)C12CC2` (stereo not drawn) [Compound B2], 5.30 to 6.30. On the same count and under the same terms, for `CNc1nc(COC(=N)N2CCCC2C(F)(F)F)nc2c(-c3ccc(N4CCOCC4)cc3)csc12` (stereo not drawn) [Compound E179, (4-(Methylamino)-7-(4-morpholinophenyl)thieno[3,2-d]pyrimidin-2-yl)methyl 2-(trifluoromethyl)pyrrolidine-1-carbimidate] the value was above 7.00. Consider `CNc1nc(COC(=N)N2CCC[C@@H]2C(F)(F)F)nc2c1C1(CCCC1)C(=O)N2c1cnc(N2CCOCC2)nc1` [Compound E80], for which the pIC50 under setting [1] was above 7.00. The same measure, in the same setting: for `CNc1nc(COC(=N)N2CCC[C@H]2C(F)(F)F)nc2c1C(C)(C)C(=O)N2c1ccc(N2CCOCC2)cc1` [Compound E108] the value was above 7.00. Still for that read-out and setting: for `C[C@@H]1CN(c2ncc(N3C(=O)C4(CCCC4)c4c(NC5CCC5)nc(COC(=N)N5CCC[C@@H]5C(F)(F)F)nc43)cn2)C[C@H](C)O1` [Compound E92, [4′-(cyclobutylamino)-7′-{2-[(2R,6S)-2,6-dimethylmorpholin-4-yl]pyrimidin-5-yl}-6′-oxo-6′,7′-dihydrospiro[cyclopentane-1,5′-pyrrolo[2,3-d]pyrimidin]-2′-yl]methyl (2R)-2-(trifluoromethyl)pyrrolidine-1-carboximidate] the value was 6.30 to 7.00; for `CCN(CC)c1ncc(N2C(=O)C3(CCCC3)c3c(N)nc(COC(=N)N4CCC[C@@H]4C(F)(F)F)nc32)cn1` [Compound E75], above 7.00; for `CC(C)N(CC(F)(F)F)C(=N)OCc1ncc2c(n1)N(c1ccc(OC3CCCCC3)cn1)CC2(C)C` [Compound E135], 5.30 to 6.30.

On to `CNc1nc(COC(=N)N2CCOCC2C(F)(F)F)nc2c1C(C)(C)C(=O)N2c1cnc(N2CCC(F)(F)C2)nc1` (stereo not drawn) [Compound E216], for which the pIC50 under setting [1] is 6.30 to 7.00. Same read-out and setting: for `CC(C)N(CC(F)(F)F)C(=N)OCc1ncc2c(n1)N(c1cccc(Oc3ccccc3)c1)CC21CC1` [Compound E142] the value was 5.30 to 6.30. Same read-out and setting: for `CNc1nc(COC(=N)N(CC(F)(F)F)C(C)C)nc2c1C(C)(C)C(=O)N2c1ccc(OC2CCCCC2)nc1` [Compound E168] the value was above 7.00. The same measure, in the same setting: for `CC(C)Nc1nc(COC(=N)N2CCC[C@@H]2C(F)(F)F)nc2c1C1(CCCC1)C(=O)N2c1cnc(N2CCOCC2)nc1` [Compound E79] the value was 6.30 to 7.00.

In the case of `C[C@@H]1CN(c2ccc(N3C(=O)C(C)(C)c4c(NCC(F)(F)F)nc(COC(=N)N5CCC[C@@H]5C(F)(F)F)nc43)cn2)C[C@H](C)O1` [Compound E38], the pIC50 under setting [1] was above 7.00. The same measure, in the same setting: for `C[C@@H]1CN(c2ccc(N3C(=O)C(C)(C)c4c(NC5CC5)nc(COC(=N)N5CCC[C@@H]5C(F)(F)F)nc43)cn2)C[C@H](C)O1` [Compound E188, (4-(Cyclopropylamino)-7-(6-((2S,6R)-2,6-dimethylmorpholino)pyridin-3-yl)-5,5-dimethyl-6-oxo-6,7-dihydro-5H-pyrrolo[2,3-d]pyrimidin-2-yl)methyl (R)-2-(trifluoromethyl)pyrrolidine-1-carbimidate] the value was above 7.00; for `C[C@@H]1CN(c2ncc(N3C(=O)C(C)(C)c4c(N)nc(COC(=N)N5CCC[C@@H]5C(F)(F)F)nc43)cc2F)C[C@H](C)O1` [Compound E37], above 7.00; for `N=C(OCc1nc(N)nc(Nc2ccc(N3CCOCC3)cc2)n1)N1CCC[C@@H]1C(F)(F)F` [Compound F55, (4-amino-6-((4-morpholinophenyl)amino)-1,3,5-triazin-2-yl) methyl(R)-2-(trifluoromethyl) pyrrolidine-1-carbimidate], 6.30 to 7.00.

As for `CN1CCCN=C1OCc1ncc2c(n1)N(c1ccc(Oc3ccccc3)cc1)CC2(C)C` [Compound E151, 5,5-dimethyl-2-(((1-methyl-1,4,5,6-tetrahydropyrimidin-2-yl)oxy)methyl)-7-(4-phenoxyphenyl)-6,7-dihydro-5H-pyrrolo[2,3-d]pyrimidine], under setting [1], the pIC50 was below 5.30.

Regarding `CC(C)Oc1cnc(COC(=N)N(CC(F)(F)F)C(C)C)nc1Nc1ccc(Oc2ccccc2)cc1` [Compound E131], the pIC50 under setting [1] is 6.30 to 7.00.

Regarding `[2H]C([2H])(OC(=N)N1CCC(F)(F)CC1)c1nc(N)nc(Nc2ccc(Oc3ccccc3)cc2)n1` [Compound F10], the pIC50 under setting [1] was above 7.00. Still for that read-out and setting: for `CNc1nc(COC(=N)N2CCC[C@@H]2C(F)(F)F)nc2c1C(C)(C)C(=O)N2c1cnc(N2C[C@@H](C)O[C@@H](C)C2)nc1` [Compound E217] the value was above 7.00. In the case of `CN(C(=N)OCc1nc(N)nc(Nc2ccc(Oc3ccccc3)cc2)n1)c1ccccc1` [Compound F29], under “786-0, 72 h”, the pIC50 is above 7.00. With `Nc1nc(COc2nc(=O)[nH]c(=O)[nH]2)nc(Nc2ccc(Oc3ccccc3)cc2)n1` [Compound F53], under setting [1], the pIC50 is below 5.30. On the same count and under the same terms, for `CCCCC1Cc2c([nH]c3ccccc23)C(c2ccc(NC34CC5CC(CC(C5)C3)C4)cc2)N1C(=O)CO/C(=N\C(C)C)NC(C)C` (stereo not drawn) [Compound B1] the value was below 5.30; for `CNc1nc(COC(=N)N2CCC[C@@H]2C(F)(F)F)nc2c1C(C)(C)C(=O)N2c1cc(F)c2c(cnn2C(C)C)c1` [Compound E31], above 7.00. For the compound `CC1(C)C(=O)N(c2ccc(N3CCOCC3)c(F)c2)c2nc(COC(=N)N3CCC[C@@H]3C(F)(F)F)nc(NC3CC3)c21` [Compound E200], under setting [1], the pIC50 was above 7.00. For the compound `CNc1nc(COC(=N)N2CCCC2C(F)(F)F)nc2c1C(C)(C)C(=O)N2c1ccc(N2C[C@@H](C)O[C@@H](C)C2)cc1` (stereo partly drawn) [Compound E23], the pIC50 under setting [1] is above 7.00. Regarding `CC(C)N(CC(F)(F)F)C(=N)OCc1ncc2c(n1)N(c1ccccc1Oc1ccccc1)CC21CC1` [Compound E143], under setting [1], the pIC50 was 6.30 to 7.00. On the same count and under the same terms, for `CNc1nc(COC(=N)N2CCC[C@@H]2C(F)(F)F)nc2c1C1(CCCC1)C(=O)N2c1cnc(C2CC2)nc1` [Compound E215] the value was 6.30 to 7.00; for `CC(C)N(CC(F)(F)F)C(=N)OCc1ncc2c(n1)N(c1ccc(N3CCCCC3)cc1)C(=O)C21CC1` [Compound E163], 6.30 to 7.00.

For `CC(C)N(CC(F)(F)F)C(=N)OCc1ncc2c(n1)N(c1ccc(OC3CCCCC3)nc1)CCO2` [Compound E126], the pIC50 (786-0, 72 h) was 5.30 to 6.30.
